Earlier results as cited in patent publication US5243035A, “Sialic acid-containing glycolipid derivatives” (Drug Delivery System Institute, Ltd., priority 1990, dated 1993).

Conditions: incorporated into liposome membrane; literature report

Substance: ganglioside GM1
- resistance of liposome to capture by the reticuloendothelial system: increased resistance to capture by the reticuloendothelial system
